These results are taken from ChEMBL document CHEMBL3085743, “6-(1-Benzyl-1H-pyrrol-2-yl)-2,4-dioxo-5-hexenoic acids as dual inhibitors of recombinant HIV-1 integrase and ribonuclease H, synthesized by a parallel synthesis approach” (J Med Chem, 2013).

For experiment [1], the target named is Human immunodeficiency virus type 1 integrase (Human immunodeficiency virus 1, UniProt Q7ZJM1).
Description: Inhibition of strand transfer activity of recombinant HIV1 integrase using 5'-end-labeled 21-mer double-stranded DNA as substrate after 60 mins by electrochemiluminescent plate-based assay
Experiment [2] concerns the target Human immunodeficiency virus type 1 reverse transcriptase (Human immunodeficiency virus 1, UniProt Q72547).
Description: Inhibition of RNase H activity of recombinant HIV1 reverse transcriptase using poly(dC)-[3H]poly(rG) as substrate

Human immunodeficiency virus type 1 integrase, sequence (Q7ZJM1 whole entry): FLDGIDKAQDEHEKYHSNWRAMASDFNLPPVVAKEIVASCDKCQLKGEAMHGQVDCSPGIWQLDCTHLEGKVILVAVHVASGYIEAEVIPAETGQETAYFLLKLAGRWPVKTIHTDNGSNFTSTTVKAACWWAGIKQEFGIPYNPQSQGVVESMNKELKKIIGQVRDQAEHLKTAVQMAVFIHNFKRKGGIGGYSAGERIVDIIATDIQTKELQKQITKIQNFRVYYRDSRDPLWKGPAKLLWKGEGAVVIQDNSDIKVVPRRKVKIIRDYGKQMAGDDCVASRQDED

Regarding `O=C(/C=C/c1cccn1Cc1ccc(Cl)cc1)CC(=O)C(=O)O`, the figures for the IC50 in experiment [1] and in experiment [2] were 4.1 µM and 5 µM, respectively.

Regarding `CCOC(=O)C(=O)CC(=O)/C=C/c1cccn1Cc1ccc(C)cc1`, it took 7.3 µM to reach half-maximal inhibition in experiment [2] (IC50).

With `CCOC(=O)C(=O)CC(=O)/C=C/c1cccn1Cc1ccc(F)cc1F`, the values for the IC50 in experiment [1] and in experiment [2] were 1 µM and 19 µM, respectively.

Consider `O=C(/C=C/c1cccn1Cc1cc(F)cc(F)c1)CC(=O)C(=O)O`, for which the IC50 in experiment [1] amounted to 1.2 µM; in experiment [2] it was 14 µM.

For the compound `O=C(/C=C/c1cccn1Cc1ccc(Cl)cc1Cl)CC(=O)C(=O)O`, the half-inhibitory concentration (IC50) in experiment [1] was found to be 4.9 µM; in experiment [2], 7 µM.

For `O=C(/C=C/c1cccn1Cc1c(Cl)cccc1Cl)CC(=O)C(=O)O`, the results for the IC50 in experiment [1] and in experiment [2] were 0.17 µM and 28 µM, respectively.

With `O=C(/C=C/c1cccn1Cc1cc(Cl)cc(Cl)c1)CC(=O)C(=O)O`, the figures for the IC50 in experiment [1] and in experiment [2] were 0.97 µM and 30 µM, respectively.

For the compound `O=C(/C=C/c1cccn1Cc1cccc(Cl)c1)CC(=O)C(=O)O`, the IC50 came to 0.31 µM in experiment [1] and 9 µM in experiment [2].

For the compound `N#Cc1ccccc1Cn1cccc1/C=C/C(=O)CC(=O)C(=O)O`, the IC50 in experiment [1] and in experiment [2] was 6 µM each time.

Take `N#Cc1cccc(Cn2cccc2/C=C/C(=O)CC(=O)C(=O)O)c1`: the IC50 came out at 0.75 µM in experiment [1] and 5 µM in experiment [2].

In the case of `N#Cc1ccc(Cn2cccc2/C=C/C(=O)CC(=O)C(=O)O)cc1`, the IC50 in experiment [1] stood at 1.7 µM; in experiment [2], 6 µM.

Consider `COc1ccccc1Cn1cccc1/C=C/C(=O)CC(=O)C(=O)O`, for which the IC50 in experiment [1] worked out at 0.53 µM; in experiment [2], 16 µM.

Take `CCOc1ccccc1Cn1cccc1/C=C/C(=O)CC(=O)C(=O)O`: the IC50 in experiment [1] is 0.31 µM; in experiment [2], 64 µM.

For `Cc1cc(C)cc(Cn2cccc2/C=C/C(=O)CC(=O)C(=O)O)c1`, the results for the IC50 in experiment [1] and in experiment [2] were 1.6 µM and 16 µM, respectively.

Regarding `O=C(/C=C/c1cccn1Cc1cccc(F)c1F)CC(=O)C(=O)O`, the IC50 in experiment [1] was determined as 0.059 µM; in experiment [2], 6 µM.

Turning to `O=C(/C=C/c1cccn1Cc1ccc(F)cc1F)CC(=O)C(=O)O`, the IC50 in experiment [1] is 0.042 µM; in experiment [2] it was 10 µM.

Turning to `O=C(/C=C/c1cccn1Cc1cc(F)ccc1F)CC(=O)C(=O)O`, the IC50 was 0.052 µM in experiment [1] and 5 µM in experiment [2].

Regarding `O=C(/C=C/c1cccn1Cc1c(F)cccc1F)CC(=O)C(=O)O`, the results for the IC50 in experiment [1] and in experiment [2] were 0.15 µM and 50 µM, respectively.

On to `O=C(/C=C/c1cccn1Cc1ccc(F)c(F)c1)CC(=O)C(=O)O`, for which the IC50 came out at 1.6 µM in experiment [1] and 86 µM in experiment [2].

For the compound `CCOC(=O)C(=O)CC(=O)/C=C/c1cccn1Cc1cc(F)ccc1F`, the IC50 in experiment [1] worked out at 0.45 µM; in experiment [2] it was 9 µM.

For the compound `CCOC(=O)C(=O)CC(=O)/C=C/c1cccn1Cc1c(F)cccc1F`, the IC50 in experiment [1] is 4 µM; in experiment [2] it was 19 µM.

On to `CCOC(=O)C(=O)CC(=O)/C=C/c1cccn1Cc1cc(F)cc(F)c1`, for which the IC50 is 0.49 µM in experiment [1] and 5 µM in experiment [2].

In the case of `CCOC(=O)C(=O)CC(=O)/C=C/c1cccn1Cc1ccc(Cl)cc1Cl`, the concentration for half-maximal inhibition (IC50) is greater than 111 µM in experiment [1] and 9 µM in experiment [2].

For the compound `CCOC(=O)C(=O)CC(=O)/C=C/c1cccn1Cc1c(Cl)cccc1Cl`, the IC50 in experiment [1] came out at 1.7 µM; in experiment [2], 22 µM.

Consider `CCOC(=O)C(=O)CC(=O)/C=C/c1cccn1Cc1cc(Cl)cc(Cl)c1`, for which the IC50 in experiment [1] turned out to be 8 µM.

As to `Cc1ccccc1Cn1cccc1/C=C/C(=O)CC(=O)C(=O)O`, the IC50 in experiment [1] was 0.17 µM; in experiment [2], 26 µM.

In the case of `Cc1cccc(Cn2cccc2/C=C/C(=O)CC(=O)C(=O)O)c1`, the figures for the IC50 in experiment [1] and in experiment [2] were 1.3 µM and 4.6 µM, respectively.

For the compound `O=C(/C=C/c1cccn1Cc1ccccc1F)CC(=O)C(=O)O`, the values for the IC50 in experiment [1] and in experiment [2] were 0.98 µM and 6.4 µM, respectively.

In the case of `O=C(/C=C/c1cccn1Cc1cccc(F)c1)CC(=O)C(=O)O`, the IC50 in experiment [1] was found to be 0.92 µM; in experiment [2] it was 14 µM.

In the case of `CCOC(=O)C(=O)CC(=O)/C=C/c1cccn1Cc1ccccc1F`, the IC50 in experiment [1] was 1 µM; in experiment [2] it was 6.3 µM.

In the case of `CCOC(=O)C(=O)CC(=O)/C=C/c1cccn1Cc1cccc(F)c1`, the IC50 is 11 µM in experiment [1] and 9 µM in experiment [2].

With `CCOC(=O)C(=O)CC(=O)/C=C/c1cccn1Cc1cccc(Cl)c1`, the IC50 was determined as 6 µM in experiment [1] and 19 µM in experiment [2].

Consider `CCOC(=O)C(=O)CC(=O)/C=C/c1cccn1Cc1ccccc1C#N`, for which the IC50 is 9 µM in experiment [1] and 32 µM in experiment [2].

For the compound `CCOC(=O)C(=O)CC(=O)/C=C/c1cccn1Cc1cccc(C#N)c1`, the IC50 in experiment [1] stood at 13 µM; in experiment [2], 5 µM.

With `CCOC(=O)C(=O)CC(=O)/C=C/c1cccn1Cc1ccc(C#N)cc1`, the IC50 is greater than 111 µM in experiment [1] and 8 µM in experiment [2].

Consider `CCOC(=O)C(=O)CC(=O)/C=C/c1cccn1Cc1ccccc1OC`, for which the results for the IC50 in experiment [1] and in experiment [2] were 23 µM and greater than 100 µM, respectively.

On to `CCOC(=O)C(=O)CC(=O)/C=C/c1cccn1Cc1ccccc1OCC`, for which the IC50 in experiment [1] was 12 µM; in experiment [2], greater than 100 µM.

For `CCOC(=O)C(=O)CC(=O)/C=C/c1cccn1Cc1cc(C)cc(C)c1`, the IC50 was 19 µM in experiment [1] and 6 µM in experiment [2].

As to `CCOC(=O)C(=O)CC(=O)/C=C/c1cccn1Cc1cccc(F)c1F`, the IC50 came to 0.53 µM in experiment [1] and 8 µM in experiment [2].

Turning to `CCOC(=O)C(=O)CC(=O)/C=C/c1cccn1Cc1ccccc1C`, the IC50 in experiment [1] amounted to 32 µM; in experiment [2], 3 µM.

`CCOC(=O)C(=O)CC(=O)/C=C/c1cccn1Cc1cccc(C)c1`: the 50% inhibitory concentration (IC50) is 8 µM in experiment [1] and 9.6 µM in experiment [2].

Compound `CCOC(=O)C(=O)CC(=O)/C=C/c1cccn1Cc1ccc(Cl)cc1` yielded a half-maximal inhibitory concentration (IC50) in experiment [2] of 8 µM.

The compound `COc1ccc(Cn2cccc2/C=C/C(=O)CC(=O)C(=O)O)cc1` yielded an IC50 in experiment [2] of 3 µM.

On to `O=C(/C=C/c1cccn1Cc1ccc(F)cc1)CC(=O)C(=O)O`, for which the IC50 in experiment [1] was 0.026 µM; in experiment [2] it was 2.5 µM.

With `O=C(/C=C/c1cccn1Cc1ccccc1)CC(=O)C(=O)O`, in experiment [2], the IC50 was 15 µM.

`Cc1ccc(Cn2cccc2/C=C/C(=O)CC(=O)C(=O)O)cc1` returned a half-inhibitory concentration (IC50) in experiment [2] of 17 µM.

Compound `CCOC(=O)C(=O)CC(=O)/C=C/c1cccn1Cc1ccc(OC)cc1` displayed an IC50 in experiment [2] of 6.7 µM.

Usually IC50 stands for the concentration needed to halve the response being measured. A high value points to weaker potency in that assay.
